Target: T1, Menin MLL 4-43 (Homo sapiens, UniProt O00255)
T1 sequence (O00255 1-610): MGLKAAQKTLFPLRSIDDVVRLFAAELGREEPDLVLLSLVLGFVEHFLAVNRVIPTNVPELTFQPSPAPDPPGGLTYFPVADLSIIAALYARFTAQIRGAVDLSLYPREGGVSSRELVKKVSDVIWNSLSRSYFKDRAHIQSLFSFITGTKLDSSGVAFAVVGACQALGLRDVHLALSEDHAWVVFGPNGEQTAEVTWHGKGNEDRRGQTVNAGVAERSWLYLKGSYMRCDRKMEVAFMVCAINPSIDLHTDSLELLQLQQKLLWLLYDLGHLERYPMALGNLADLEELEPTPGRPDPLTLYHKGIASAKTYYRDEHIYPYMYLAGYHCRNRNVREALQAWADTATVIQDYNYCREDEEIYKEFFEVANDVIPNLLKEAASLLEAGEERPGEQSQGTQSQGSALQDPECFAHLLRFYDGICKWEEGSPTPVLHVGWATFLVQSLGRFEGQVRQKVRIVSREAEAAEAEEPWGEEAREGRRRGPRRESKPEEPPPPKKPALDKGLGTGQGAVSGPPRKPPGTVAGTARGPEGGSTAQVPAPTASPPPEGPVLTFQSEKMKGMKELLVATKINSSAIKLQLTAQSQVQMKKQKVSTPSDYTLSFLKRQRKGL
Test: Fluorescence polarization (FP) competition assay of the menin-MLL interaction
Assay type: binding
Details: fluorescence polarization assay; read-out: Menin MLL 4-43 IC50

| SMILES | IC50 [nM] |
| --- | --- |
| Cc1c(CN2CCC(Nc3ncnc4sc(CC(F)(F)F)cc34)CC2)ccc2c1cc(C#N)n2CCN1CC2(CCN(S(C)(=O)=O)CC2)C1 [Compound 56] | 20 to 1000 |
| Cc1c(CN2CCC(Nc3ncnc4sc(CC(F)(F)F)cc34)CC2)ccc2c1cc(C#N)n2CCN1CC2(C1)CN(S(C)(=O)=O)C2 [Compound 57] | 20 to 1000 |
| Cc1c(CN2CCC(Nc3ncnc4sc(CC(F)(F)F)cc34)CC2)ccc2c1cc(C#N)n2CCN1CC2(CCN(S(C)(=O)=O)C2)C1 [Compound 58] | 20 to 1000 |
| Cc1c(CN2CCC(Nc3ncnc4sc(CC(F)(F)F)cc34)CC2)ccc2c1cc(C#N)n2CCC1CCN(S(C)(=O)=O)C(C)C1 (centres unmarked) [Compound 59] | 20 to 1000 |
| Cc1c(CN2CCC(Nc3ncnc4sc(CC(F)(F)F)cc34)CC2)ccc2c1cc(C#N)n2CCC1(C)CCN(S(C)(=O)=O)CC1 [Compound 60] | > 1000 |
| Cc1c(CN2CCC(Nc3ncnc4sc(CC(F)(F)F)cc34)CC2)ccc2c1cc(C#N)n2CC1(N2CCN(S(C)(=O)=O)CC2)CC1 [Compound 61] | 50 to 250 |
| Cc1c(CN2CCC(Nc3ncnc4sc(CC(F)(F)F)cc34)CC2)ccc2c1cc(C#N)n2CC(CO)N1CCN(S(C)(=O)=O)CC1 (centres unmarked) [Compound 62] | > 1000 |
| CNS(=O)(=O)N1CCN([C@@H](C)Cn2c(C#N)cc3c(C)c(CN4CCC(Nc5ncnc6sc(CC(F)(F)F)cc56)CC4)ccc32)CC1 [Compound 64] | < 50 |
| Cc1c(CN2CCC(Nc3ncnc4sc(CC(F)(F)F)cc34)CC2)ccc2c1cc(C#N)n2C[C@H](C)N1CCN(C=O)CC1 [Compound 65] | < 50 |
| CNS(=O)(=O)N1CCN([C@H](C)Cn2c(C#N)cc3c(C)c(CN4CCC(Nc5ncnc6sc(CC(F)(F)F)cc56)CC4)ccc32)CC1 [Compound 66] | 20 to 1000 |
| Cc1c(CN2CCC(Nc3ncnc4sc(CC(F)(F)F)cc34)CC2)ccc2c1cc(C#N)n2C[C@@H](C)N1CCN(C=O)CC1 [Compound 67] | 20 to 1000 |
| CNC(=O)N1CCN([C@@H](C)Cn2c(C#N)cc3c(C)c(CN4CCC(Nc5ncnc6sc(CC(F)(F)F)cc56)CC4)ccc32)CC1 [Compound 68] | 50 to 250 |
| Cc1c(CN2CCC(Nc3ncnc4sc(CC(F)(F)F)cc34)CC2)ccc2c1cc(C#N)n2C[C@H](C)N1CCN(S(=O)(=O)CCF)CC1 [Compound 69] | 50 to 250 |
| Cc1c(CN2CCC(Nc3ncnc4sc(CC(F)(F)F)cc34)CC2)ccc2c1cc(C#N)n2C[C@H](C)N1CCN(S(=O)(=O)CF)CC1 [Compound 70] | 50 to 250 |
| Cc1c(CN2CCC(Nc3ncnc4sc(CC(F)(F)F)cc34)CC2)ccc2c1cc(C#N)n2C[C@@H](C)N1CCN(S(=O)(=O)CF)CC1 [Compound 71] | > 1000 |
| COC(=O)N1CCN([C@@H](C)Cn2c(C#N)cc3c(C)c(CN4CCC(Nc5ncnc6sc(CC(F)(F)F)cc56)CC4)ccc32)CC1 [Compound 72] | 50 to 250 |
| Cc1c(CN2CCC(Nc3ncnc4sc(CC(F)(F)F)cc34)CC2)ccc2c1cc(C#N)n2C[C@H](C)N1CCN(S(=O)(=O)NC2CC2)CC1 [Compound 73] | < 50 |
| [2H]C([2H])(C(C)N1CCN(S(C)(=O)=O)CC1)n1c(C#N)cc2c(C)c(CN3CCC(Nc4ncnc5sc(CC(F)(F)F)cc45)CC3)ccc21 (centres unmarked) [Compound 74] | 50 to 250 |
| Cc1c(CN2CCC(Nc3ncnc4sc(CC(F)(F)F)cc34)CC2)ccc2c1cc(C#N)n2CC(C)N1CCN(S(C)(=O)=O)C(C(=O)O)C1 (centres unmarked) [Compound 82] | 20 to 1000 |
| CNC(=O)C1CCN(C(C)Cn2c(C#N)cc3c(C)c(CN4CCC(Nc5ncnc6sc(CC(F)(F)F)cc56)CC4)ccc32)CC1 (centres unmarked) [Compound 84] | 50 to 250 |
| Cc1c(CN2CCC(Nc3ncnc4sc(CC(F)(F)F)cc34)CC2)ccc2c1cc(C#N)n2C[C@H](C)N1CCN(S(=O)(=O)CCO)CC1 [Compound 85] | < 50 |
| Cc1c(CN2CCC(Nc3ncnc4sc(CC(F)(F)F)cc34)CC2)ccc2c1cc(C#N)n2CC(C)N1CCN(S(=O)(=O)N(C)C)CC1 (centres unmarked) [Compound 87] | 50 to 250 |
| Cc1c(CN2CCC(Nc3ncnc4sc(CC(F)(F)F)cc34)CC2)ccc2c1cc(C#N)n2CC(C)N1CCN(S(=O)(=O)NCCN)CC1 (centres unmarked) [Compound 88] | < 50 |
